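Five concentrations, 48 hours, 96-well plates. Here, GI50 denotes the concentration required for 50% inhibition of growth. TGI marks complete inhibition of growth.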
Tests used:
Assay in all cases: inhibition of tumour cell growth, NCI panel, 48 h
[1] = system: T-47D breast
[2] = system: SN12C renal
[3] = system: HCT-15 colon
[4] = system: 786-0 renal
[5] = system: HL-60(TB) leukemia
[6] = system: MDA-N
[7] = system: KM12 colon
[8] = system: IGROV1 ovarian
[9] = system: UO-31 renal
[10] = system: KM20L2 colon

Compound	TGI [1] [µM]	TGI [2] [µM]	TGI [3] [µM]	TGI [4] [µM]	TGI [5] [µM]	TGI [6] [µM]	TGI [7] [µM]	TGI [8] [µM]	TGI [9] [µM]	TGI [10] [µM]	GI50 [2] [µM]	GI50 [3] [µM]	GI50 [4] [µM]	GI50 [9] [µM]	GI50 [5] [µM]	GI50 [6] [µM]	GI50 [7] [µM]	GI50 [1] [µM]	GI50 [8] [µM]
CN(C)c1ccc(/C=C2\N=C(c3ccc([N+](=O)[O-])cc3)OC2=O)cc1	> 100	> 100	45.4	> 100	87.9	> 100	> 100	> 100											
CC(=O)c1c(C)n(C)c2c1nnc1ccccc12	> 100	> 100	> 100	> 100		> 100	> 100		8.11										
C=CC(C)(O)/C=C/C=C(\C)C(CC1OC1(C)C)OC(=O)/C(C)=C\C (stereo not given)	> 100	> 100	> 100	> 100	> 100	> 100	> 100	> 100	> 100										
COC(=O)C1=C(C(=O)OC)C23CC1C1C(C(=O)OC)=C(C(=O)OC)C12C1C=CC3C2C(=O)OC(=O)C21 (stereo not given)		> 100	> 100	> 100	> 100		> 100	> 100	> 100	> 100									
COC1CCC(O)C(/C=C/[N+](=O)[O-])C1 (stereo not given)	44.8	9.05	4.69	3.67	5.29	5.56	16.9	3.55											
c1ccc(-c2cc(C3CO3)c3ccccc3n2)cc1 (stereo not given)	65.8	31.3	40.7	29.3	63.7	39.4	33	36.6	3.51										
OCC1OC(OCC(O)C(O)C(O)C(/C=N/Nc2ccccc2)=N/Nc2ccccc2)C(O)C(O)C1O (stereo not given)	56.9	> 100	> 100	> 100	> 100	> 100	> 100	> 100	> 100										
CN=C(NC#N)NCCSCc1nc[nH]c1C	> 100	> 100	> 100	> 100	> 100	> 100	> 100	> 100	> 100										
CC1(C)CCc2cc3c(cc2O1)OCC1c2cc4c(cc2OC31)OCO4 (stereo not given)		> 100	> 100	> 100	> 100		> 100	> 100	> 100	> 100									
O=C1C2=Nc3ccccc3C(O)N2c2ccccc21 (stereo not given)	> 100	> 100	> 100	> 100	34.2	3.5	> 100	> 100	> 100										
COc1ccc2c(c1)[n+]([O-])c(-c1ccccc1)c(N)[n+]2[O-]		> 100	> 100	> 100	> 100		> 100	> 100	> 100	> 100									
Cc1ccc(Nc2n[nH]c(=S)s2)cc1	> 100	> 100	> 100	> 100	> 100	> 100	> 100		> 100										
C/C(=N\N=C(\[Se])N1CCN(c2ccccn2)CC1)c1ccccn1		21.3	17.3	19.8		21	18.5		> 40		0.375	0.0118	0.198	0.138	0.00236	0.424	0.239		
CC(=O)c1cccc(NC(=O)C(=O)C(C2OC(=O)c3ccccc32)[N+](=O)[O-])c1 (stereo not given)		> 100	> 100	> 100	> 100		> 100	> 100	> 100	> 100									
COc1ccc(N=Nc2c(-c3ccccc3)nn(C(=O)CC(=O)Nc3cccc(Cl)c3)c2-c2ccccc2)cc1		> 100	> 100	> 100	> 100		> 100	> 100	> 100	> 100									
CCOC(=O)c1c2c(n(Cc3ccccc3)c1C)-c1ccccc1C(=O)C2=O	31.8	41.6	30.8	19.3	> 100		65.3	20.1	31.6		15.7	15.3	6.35	16.3	79.4		19.8	13.2	4.35
